Peptide text beside a SMILES is read from it.
Tested on: erythrocytes infected with 3D7 trophozoites
Type: cell-based, Plasmodium falciparum
Details: sheet Ratio; for Ratio of metabolite abundance, Exp1_1hr: Exp1, 1hr; for Ratio of metabolite abundance, Exp1_3hr: Exp1, 3hr; for Ratio of metabolite abundance, Exp1_6hr: Exp1, 6hr; for Ratio of metabolite abundance, Exp2_1hr: Exp2, 1hr; for Ratio of metabolite abundance, Exp2_3hr: Exp2, 3hr; for Ratio of metabolite abundance, Exp2_6hr: Exp2, 6hr; for Ratio of metabolite abundance, Exp3_1hr: Exp3, 1hr; for Ratio of metabolite abundance, Exp3_3hr: Exp3, 3hr; for Ratio of metabolite abundance, Exp3_6hr: Exp3, 6hr

SMILES | Ratio of metabolite abundance, Exp1_1hr | Ratio of metabolite abundance, Exp1_3hr | Ratio of metabolite abundance, Exp1_6hr | Ratio of metabolite abundance, Exp2_1hr | Ratio of metabolite abundance, Exp2_3hr | Ratio of metabolite abundance, Exp2_6hr | Ratio of metabolite abundance, Exp3_1hr | Ratio of metabolite abundance, Exp3_3hr | Ratio of metabolite abundance, Exp3_6hr
O=C(CO)COP(=O)(O)O [Glycerone phosphate] | 2.2 | 2.096 | 0.8912 | 1.254 | 1.043 | 0.7007 | 1.243 | 1.057 | 0.7275
CC(C)C[C@H](NC(=O)[C@@H](N)Cc1cnc[nH]1)C(=O)N[C@@H](CC(=O)O)C(=O)O [HLD] (H-His-Leu-Asp-OH) | 0.6785 | 0.3938 | 1.496 | 0.9181 | 0.5663 | 1.359 | 0.7775 | 0.6588 | 1.57
CC(C)[C@H](NC(=O)[C@@H](N)Cc1c[nH]cn1)C(=O)N[C@@H](CC(=O)O)C(=O)N[C@@H](CC(=O)O)C(=O)O [HVDD] (H-HVDD-OH) | 0.5307 | 0.3298 | 0.7281 | 0.7593 | 0.3961 | 1.162 | 0.6174 | 0.4236 | 1.2463
O=C(O)[C@@H]1CC(O)CN1 (stereo partly drawn) [Hydroxy-L-proline] | 1.2334 | 0.9688 | 0.6326 | 1.182 | 1.17 | 1.132 | 1.1402 | 1.1046 | 1.082
O=c1[nH]cnc2c1ncn2[C@@H]1O[C@H](COP(=O)(O)OP(=O)(O)O)[C@@H](O)[C@H]1O [IDP] | 0.8853 | 1.384 | 1.314 | 0.5363 | 0.6148 | 0.824 | 1.461 | 1.458 | 1.561
CC(C)C[C@H](N)C(=O)N[C@@H](CC(=O)O)C(=O)O [LD] (H-Leu-Asp-OH) | 1.295 | 0.7458 | 0.9103 | 1.486 | 1.077 | 1.185 | 1.151 | 1.268 | 1.201
CC(O)C(=O)O (stereo not drawn) [Lactate] | 8.023 | 5.339 | 5.015 | 5.913 | 7.877 | 8.247 | 2.842 | 5.6661 | 4.424
CC(=O)N[C@@H](CCC(=O)O)C(=O)O [N-Acetyl-glutamate] | 1.252 | 0.8243 | 0.4492 | 1.417 | 0.7877 | 0.6113 | 0.5549 | 0.2844 | 0.3771
NC(=O)N[C@@H](CC(=O)O)C(=O)O [N-Carbamoyl-L-aspartate] | 0.3523 | 0.4866 | 0.4355 | 0.4532 | 0.2641 | 0.4319 | 0.3568 | 0.3426 | 0.2976
